# Experimental data reported in PubChem BioAssay AID256 (DTP/NCI, 2004).
# Values joined by “and” are separate entries in the source; they are usually repeats but may differ in a detail not shown here. Identical values can stand only once. Inconclusive results and toxic doses are left out.
# Test system: CD2F1 mice, L1210 leukemia ip, survival T/C
# Experiment: NCI In Vivo Anticancer Drug Screen. Data for tumor model L1210 Leukemia (intraperitoneal) in CD2F1 (CDF1) mice
# Settings: higher = longer survival
# How it was run: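 Antitumor effect is scored in animals hosting a serially transplanted tumor. Values compare compound-dosed animals against vehicle-only controls as a simple quotient.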
# [1] = endpoint: mean survival time, dose: 100.0 mg/kg/injection, schedule: Q04DX003 (ip), vehicle: saline with Tween-80
# [2] = endpoint: mean survival time, dose: 200.0 mg/kg/injection, schedule: Q04DX003 (ip), vehicle: saline with Tween-80
# [3] = endpoint: mean survival time, dose: 400.0 mg/kg/injection, schedule: Q04DX003 (ip), vehicle: saline with Tween-80
# [4] = endpoint: mean survival time, dose: 6.25 mg/kg/injection, schedule: Q01DX009 (ip), vehicle: saline with Tween-80
# [5] = endpoint: mean survival time, dose: 12.5 mg/kg/injection, schedule: Q01DX009 (ip), vehicle: saline with Tween-80
# [6] = endpoint: mean survival time, dose: 25.0 mg/kg/injection, schedule: Q01DX009 (ip), vehicle: saline with Tween-80
# [7] = endpoint: mean survival time, dose: 12.5 mg/kg/injection, schedule: Q01DX009 (ip), vehicle: water
# [8] = endpoint: mean survival time, dose: 25.0 mg/kg/injection, schedule: Q01DX009 (ip), vehicle: water
# [9] = endpoint: mean survival time, dose: 50.0 mg/kg/injection, schedule: Q01DX009 (ip), vehicle: water
# [10] = endpoint: mean survival time, dose: 100.0 mg/kg/injection, schedule: Q04DX002 (ip), vehicle: saline with Tween-80
# [11] = endpoint: mean survival time, dose: 200.0 mg/kg/injection, schedule: Q04DX002 (ip), vehicle: saline with Tween-80
# [12] = endpoint: mean survival time, dose: 400.0 mg/kg/injection, schedule: Q04DX002 (ip), vehicle: saline with Tween-80
# [13] = endpoint: mean survival time, dose: 50.0 mg/kg/injection, schedule: Q01DX009 (ip), vehicle: saline with Tween-80
# [14] = endpoint: mean survival time, dose: 100.0 mg/kg/injection, schedule: Q01DX009 (ip), vehicle: saline with Tween-80
# [15] = endpoint: mean survival time, dose: 50.0 mg/kg/injection, schedule: Q04DX002 (ip), vehicle: saline with Tween-80
# [16] = endpoint: mean survival time, dose: 12.5 mg/kg/injection, schedule: Q04DX003 (ip), vehicle: saline with Tween-80
# [17] = endpoint: mean survival time, dose: 25.0 mg/kg/injection, schedule: Q04DX003 (ip), vehicle: saline with Tween-80
structure (smiles),measurement,setting,value
NC(Cc1cc([N+](=O)[O-])ccc1CN(CCCl)CCCl)C(=O)O (centres undefined),T/C,"endpoint: mean survival time, dose: 0.25 mg/kg/injection, schedule: Q04DX003 (ip), vehicle: Klucel (hydroxypropylcellulose) (HPC)",109 % of control
same,T/C,"endpoint: mean survival time, dose: 0.5 mg/kg/injection, schedule: Q04DX003 (ip), vehicle: Klucel (hydroxypropylcellulose) (HPC)",111 % of control
same,T/C,"endpoint: mean survival time, dose: 0.75 mg/kg/injection, schedule: Q01DX001 (ip), vehicle: Klucel (hydroxypropylcellulose) (HPC)",103 % of control
same,T/C,"endpoint: mean survival time, dose: 1.0 mg/kg/injection, schedule: Q04DX003 (ip), vehicle: Klucel (hydroxypropylcellulose) (HPC)",115 % of control
same,T/C,"endpoint: mean survival time, dose: 1.5 mg/kg/injection, schedule: Q01DX001 (ip), vehicle: Klucel (hydroxypropylcellulose) (HPC)",114 % of control
same,T/C,"endpoint: mean survival time, dose: 3.0 mg/kg/injection, schedule: Q01DX001 (ip), vehicle: Klucel (hydroxypropylcellulose) (HPC)",123 % of control
same,T/C,"endpoint: mean survival time, dose: 4.0 mg/kg/injection, schedule: Q01DX009 (ip), vehicle: Klucel (hydroxypropylcellulose) (HPC)",158 % of control
same,T/C,"endpoint: mean survival time, dose: 8.0 mg/kg/injection, schedule: Q01DX009 (ip), vehicle: Klucel (hydroxypropylcellulose) (HPC)",123 % of control
same,T/C,"endpoint: median survival time, dose: 0.75 mg/kg/injection, schedule: Q01DX001 (ip), vehicle: Klucel (hydroxypropylcellulose) (HPC)",115 % of control
same,T/C,"endpoint: median survival time, dose: 1.5 mg/kg/injection, schedule: Q01DX001 (ip), vehicle: Klucel (hydroxypropylcellulose) (HPC)",111 % of control
same,T/C,"endpoint: median survival time, dose: 1.88 mg/kg/injection, schedule: Q04DX003 (ip), vehicle: Klucel (hydroxypropylcellulose) (HPC)",362 % of control
same,T/C,"endpoint: median survival time, dose: 3.0 mg/kg/injection, schedule: Q01DX001 (ip), vehicle: Klucel (hydroxypropylcellulose) (HPC)",119 % of control
same,T/C,"endpoint: median survival time, dose: 3.12 mg/kg/injection, schedule: Q01DX001 (ip), vehicle: Klucel (hydroxypropylcellulose) (HPC)",362 % of control
same,T/C,"endpoint: median survival time, dose: 6.25 mg/kg/injection, schedule: Q01DX001 (ip), vehicle: Klucel (hydroxypropylcellulose) (HPC)",114 % of control
same,T/C,"endpoint: median survival time, dose: 12.5 mg/kg/injection, schedule: Q01DX001 (ip), vehicle: Klucel (hydroxypropylcellulose) (HPC)",124 % of control
same,T/C,"endpoint: median survival time, dose: 25.0 mg/kg/injection, schedule: Q01DX001 (ip), vehicle: Klucel (hydroxypropylcellulose) (HPC)",121 % of control
Cc1c(O)c(=O)n(-c2ccccc2)n1C,T/C,[1],96 % of control
same,T/C,[2],93 % of control
same,T/C,[3],96 % of control
O=C(OCCC[P+](c1ccccc1)(c1ccccc1)c1ccccc1)c1ccccc1,T/C,"endpoint: mean survival time, dose: 6.25 mg/kg/injection, schedule: Q01DX001 (ip), vehicle: saline with Tween-80",109 % of control
same,T/C,[4],110 % of control
same,T/C,"endpoint: mean survival time, dose: 12.5 mg/kg/injection, schedule: Q01DX001 (ip), vehicle: saline with Tween-80",114 % of control
same,T/C,[5],114 % of control
same,T/C,"endpoint: mean survival time, dose: 25.0 mg/kg/injection, schedule: Q01DX001 (ip), vehicle: saline with Tween-80",115 % of control
same,T/C,[6],112 % of control
CCOC(=O)C(=O)c1c[nH]c2ccccc12,T/C,"endpoint: mean survival time, dose: 100.0 mg/kg/injection, schedule: Q01DX009 (ip), vehicle: saline sonified",89 % of control
same,T/C,"endpoint: mean survival time, dose: 200.0 mg/kg/injection, schedule: Q01DX009 (ip), vehicle: saline sonified",95 % of control
same,T/C,"endpoint: mean survival time, dose: 400.0 mg/kg/injection, schedule: Q01DX009 (ip), vehicle: saline sonified",94 % of control
CCOC(=O)C(C)C(=O)C(C)N1C(=O)c2ccccc2C1=O (centres undefined),T/C,[7],95 % of control
same,T/C,[8],95 % of control
same,T/C,[9],95 % of control
same,T/C,"endpoint: mean survival time, dose: 100.0 mg/kg/injection, schedule: Q01DX009 (ip), vehicle: water",100 % of control
same,T/C,"endpoint: mean survival time, dose: 200.0 mg/kg/injection, schedule: Q01DX009 (ip), vehicle: water",96 % of control
N#CC(CC(=O)c1ccc(Br)cc1)c1ccccc1 (centres undefined),T/C,[1],95 % of control
same,T/C,[2],91 % of control
same,T/C,[3],95 % of control
CC(=O)Nc1ccc(SC(=O)N(C)C)cc1,T/C,[1],92 % of control
C1CC[N-]CC1.C1CC[N-]CC1.CC(=O)CC(C)=O.CC(=O)CC(C)=O.[Ni+2],T/C,"endpoint: mean survival time, dose: 10.0 mg/kg/injection, schedule: Q04DX003 (ip), vehicle: saline",94 % of control
same,T/C,"endpoint: mean survival time, dose: 20.0 mg/kg/injection, schedule: Q04DX003 (ip), vehicle: saline",96 % of control
same,T/C,"endpoint: mean survival time, dose: 40.0 mg/kg/injection, schedule: Q04DX003 (ip), vehicle: saline",104 % of control
Cc1cccc(NC(=S)N(C)C)c1,T/C,[1],104 % of control
same,T/C,[2],102 % of control
same,T/C,[3],94 % of control
CC(C)(C)C1CCC(S(=O)c2ccccc2)CC1 (centres undefined),T/C,"endpoint: mean survival time, dose: 100.0 mg/kg/injection, schedule: Q01DX001 (ip), vehicle: saline with Tween-80",105 % of control
same,T/C,[10],90 % of control
same,T/C,"endpoint: mean survival time, dose: 200.0 mg/kg/injection, schedule: Q01DX001 (ip), vehicle: saline with Tween-80",100 % of control
same,T/C,[11],93 % of control
same,T/C,"endpoint: mean survival time, dose: 400.0 mg/kg/injection, schedule: Q01DX001 (ip), vehicle: saline with Tween-80",103 % of control
same,T/C,[12],93 % of control
C[CH2][Ge]([CH2]C)[CH2]C.C[CH2][Ge]([CH2]C)[CH2]C.C[CH2][Ge]([CH2]C)[O][Ge]([CH2]C)[CH2]C,T/C,[4],97 % of control and 106 % of control
same,T/C,[5],96 % of control and 104 % of control
same,T/C,[6],97 % of control and 112 % of control
same,T/C,[13],104 % of control and 112 % of control
same,T/C,[14],109 % of control
O=[N+]([O-])c1ccc2c(c1)sc1cc([N+](=O)[O-])c(Br)cc12,T/C,[10],97 % of control
same,T/C,[11],94 % of control
same,T/C,[12],112 % of control
Cc1cc(Cl)ccc1NC(=O)Nc1c(Oc2ccc(Cl)cc2)ccc(Cl)c1S(=O)(=O)O,T/C,"endpoint: mean survival time, dose: 100.0 mg/kg/injection, schedule: Q01DX001 (ip), vehicle: saline",96 % of control
same,T/C,"endpoint: mean survival time, dose: 200.0 mg/kg/injection, schedule: Q01DX001 (ip), vehicle: saline",98 % of control
CCOC(=O)C(C(=O)c1ccccc1)c1cc(NS(=O)(=O)c2ccccc2)ccc1O (centres undefined),T/C,"endpoint: mean survival time, dose: 132.0 mg/kg/injection, schedule: Q04DX003 (ip), vehicle: saline with Tween-80",115 % of control
same,T/C,[2],106 % of control
same,T/C,"endpoint: mean survival time, dose: 300.0 mg/kg/injection, schedule: Q04DX003 (ip), vehicle: saline with Tween-80",103 % of control
c1ccc(-c2nnc(-c3ccccn3)o2)nc1,T/C,"endpoint: mean survival time, dose: 25.0 mg/kg/injection, schedule: Q04DX002 (ip), vehicle: saline with Tween-80",102 % of control
same,T/C,[15],98 % of control
same,T/C,[10],107 % of control
O=S1(=O)C[CH-]C1.[C-]#[O+].[C-]#[O+].[C-]#[O+].[W].[c-]1[c-][c-][cH-][c-]1,T/C,[15],93 % of control
same,T/C,[10],101 % of control
same,T/C,[11],89 % of control
C1CCCC(NC2=NCCO2)CC1,T/C,"endpoint: mean survival time, dose: 6.25 mg/kg/injection, schedule: Q04DX003 (ip), vehicle: saline with Tween-80",98 % of control
same,T/C,[16],97 % of control
same,T/C,[17],98 % of control
CN(C)c1ccc(/C=[N+](\[O-])c2ccccc2)cc1,T/C,[13],92 % of control
same,T/C,[14],103 % of control
same,T/C,"endpoint: mean survival time, dose: 200.0 mg/kg/injection, schedule: Q01DX009 (ip), vehicle: saline with Tween-80",100 % of control
O=C1C=CC(=Nc2ccc(Cl)cc2)O1,T/C,[1],101 % of control
same,T/C,[3],97 % of control
CC1CCC(c2cc(-c3ccccc3)n(-c3ccccc3)n2)CC1 (centres undefined),T/C,"endpoint: mean survival time, dose: 100.0 mg/kg/injection, schedule: Q04DX003 (ip), vehicle: acetone",103 % of control
same,T/C,"endpoint: mean survival time, dose: 200.0 mg/kg/injection, schedule: Q04DX003 (ip), vehicle: acetone",101 % of control
same,T/C,"endpoint: mean survival time, dose: 400.0 mg/kg/injection, schedule: Q04DX003 (ip), vehicle: acetone",93 % of control
CC(=O)ON1C(=O)C2C3C=CC(O3)C2C1=O (centres undefined),T/C,[7],100 % of control
same,T/C,[8],91 % of control
same,T/C,[9],96 % of control
CC(C)CCOC(=S)S.[Pt],T/C,"endpoint: mean survival time, dose: 9.37 mg/kg/injection, schedule: Q04DX003 (ip), vehicle: saline with Tween-80",112 % of control
same,T/C,"endpoint: mean survival time, dose: 18.75 mg/kg/injection, schedule: Q04DX003 (ip), vehicle: saline with Tween-80",96 % of control
same,T/C,"endpoint: mean survival time, dose: 37.5 mg/kg/injection, schedule: Q04DX003 (ip), vehicle: saline with Tween-80",96 % of control
same,T/C,"endpoint: mean survival time, dose: 75.0 mg/kg/injection, schedule: Q04DX003 (ip), vehicle: saline with Tween-80",104 % of control
same,T/C,"endpoint: mean survival time, dose: 150.0 mg/kg/injection, schedule: Q04DX003 (ip), vehicle: saline with Tween-80",96 % of control
CCCCCCCCCCCCCC[n+]1ccc(C(N)=O)cc1,T/C,[16],107 % of control
same,T/C,[17],107 % of control
